The assay relates to USP7 foci in U2OS cells. Kind of assay: QIBC of endogenous USP7 foci. It counts as cell-based, human. Conditions: MMC 150 ng/ml, 24 h. The procedure:
Automated multichannel wide-field microscopy for QIBC was performed using the Olympus ScanR System as described previously. Images of cell populations were acquired under non-saturating conditions with Olympus ScanR Image Acquisition software 3.2 and 3.3.0, typically 16 (4×4) images per coverslip, and identical settings were applied to all samples of the same experiment. Images were analysed with the inbuilt Olympus ScanR Image Analysis Software Version 3.2 and 3.3.0, a dynamic background correction was applied, and nuclei segmentation was performed using an integrated intensity-based object detection module based on the DAPI signal. All downstream analyses were focused on properly detected nuclei containing a 2C-4C DNA content as measured by total and mean DAPI intensities. Fluorescence intensities were quantified and are depicted as arbitrary units. Color-coded scatterplots of asynchronous cell populations were generated with Spotfire data visualization software (TIBCO Spotfire 10.10.1.7). Within one experiment, similar cell numbers were compared for the different conditions. For visualizing discrete data in scatterplots, mild jittering (random displacement of data points along discrete data axes) was applied to demerge overlapping data points. Representative scatterplots and quantifications of independent experiments, typically containing several thousand cells each, are shown. […]

The structures appear in SMILES notation.

Take `CO[C@@]12[C@H](COC(N)=O)C3=C(C(=O)C(C)=C(N)C3=O)N1C[C@@H]1N[C@@H]12` [MMC, Mitomycin C]: the USP7 nuclear foci entry is given as “increased modestly in numbers”.

(Values after article PMC13086964, “USP7 deubiquitinase stabilizes FAN1 to support DNA crosslink repair and suppress CAG repeat expansion” (Nature Communications, 2026).)
